From US8088422B2, “Purified pyrroloquinoline quinone fortified food” (Shanghai Medical Life Science Research Center, Ltd., Co., priority 2008, dated 2012)
In brackets after ≈: the same amount, converted by molar mass.

Assays:
[1] = system: DNA; settings: 10 μM PQQ (3.3 mg/L), dependent on presence of NADH and Cu (II); cited from earlier work
[2] = system: Top10 E. coli; experiment: OD600 measurement of bacterial growth in LB media with PQQ, Top10 E. coli; assay type: cell-based; settings: 37 degree C
Method: (§1) In one experiment, Top 10 E. coli and Ampicillin resistant (AmpR) E. coli are selected as bacterial samples. These bacterial samples are cultured separately in LB media in a number of tubes with various purified PQQ concentrations. LB media is prepared as following: Ten gram Bacto-tryptone, 5 g yeast extract and 10 g NaCl are added to 800 ml distilled H2O. The pH of the solution is adjusted to 7.5 with NaOH, and the final volume is adjusted to 1 L with distilled H2O. The LB media is autoclaved and filtered to be sterilized. The PQQ concentration range is prepared between 0 to 100 mg/Liter of LB media in the number of the tubes. The bacterial samples are inoculated into the tubes to the amount of 1×10^5/tube, incubated in 37 degree C. on shaking bench for designated time according to the following experiment designs. It is known that Ampicillin has no effect to the growth of Ampicillin resistant E. coli but can inhibit other bacteria growth. Therefore, the data from the Ampicillin experiment are focused on AmpR E. coli growth. While in the case of Top10 E. coli, other types of bacteria may grow in the culture as well.
(§2) Table 1 and FIG. 1 show OD600 value of samples from Top10 E. coli and Ampicillin resistant E. coli cultured at 6, 8, and 9.5 hours. OD600 is a measurement of the optical density at 600 nm wavelength light of a liquid media. The optical density is related to the amount of particle scattering of light. In this case, a high optical density indicates a large number of bacteria in the cultural sample, and OD600 datas are used in this invention disclosure as indication of numbers of bacteria in the liquid media, which is a standard method to monitor microorganism growth. The OD600 of cultured microorganism in liquid media is measured by photometer, using blank media as blank reference. To convert OD600 to the number of microorganism such as E. coli in the culture media, the converting formula is 1 OD=3.8×10^8. OD600 is a well known technique of monitoring bacterial growth to those of skilled in the art and so is not discussed further here.

[3] = Solubility of PQQ in water solution; assay type: physicochemical; settings: 20 °C, aqueous buffer; 20-25 degree C., pH 7.0 water solution
[4] = system: Ampicillin resistant (AmpR) E. coli; experiment: OD600 measurement of bacterial growth in LB media with PQQ, Ampicillin resistant E. coli; assay type: cell-based; settings: for OD600: AmpR, LB media, 37 degree C
Method: as §1, §2

[5] = Isoelectric point of PQQ; assay type: physicochemical
[6] = system: bacteria in non-pasteurized cow milk; experiment: OD600 of PQQ fortified non-pasteurized cow milk (FIG. 2); assay type: cell-based; settings: PQQ 0, 0.1, 1, 10 mg/L, after 6 and 9 hour mixing at 37 degree C, then LB culture 24 hours
Method: In one embodiment of the present invention, the inhibition effect of purified PQQ to the growth of bacterial is utilized to preserve food products. […] The samples were prepared with purified PQQ concentration level of 0, 0.1, 1, and 10 mg/L. Next, the samples were shaken at 37 degree C. for 3, 6, and 9 hours, and then saved in a refrigerator under 4 degree C. On the next day, liquid culture media LB was added into the samples, followed by the samples cultured in shake flask for the next 24 hours and ready for OD600 test.
FIG. 2 presents the OD600 value as a function of purified PQQ concentration measured from the samples shake flask for 3, 6, and 9 hours.

O=C(O)c1cc(C(=O)O)c2c(n1)C(=O)C(=O)c1cc(C(=O)O)[nH]c1-2 [PQQ, Pyrroloquinoline quinone]
DNA cleavage [1]: induce DNA cleavage at thymine and cytosine residue sites | OD600 ([2]; PQQ 0.1 mg/L, 6 Hours): 0.303 | OD600 ([2]; PQQ 0.1 mg/L, 8 Hours): 0.416 | OD600 ([2]; PQQ 0.1 mg/L, 9.5 Hours): 0.451 | OD600 ([2]; PQQ 1 mg/L, 6 Hours): 0.293 | OD600 ([2]; PQQ 1 mg/L, 8 Hours): 0.445 | OD600 ([2]; PQQ 1 mg/L, 9.5 Hours): 0.452 | OD600 ([2]; PQQ 25 mg/L, 6 Hours): 0.251 | OD600 ([2]; PQQ 25 mg/L, 8 Hours): 0.433 | OD600 ([2]; PQQ 25 mg/L, 9.5 Hours): 0.472 | OD600 ([2]; PQQ 50 mg/L, 6 Hours): 0.208 | OD600 ([2]; PQQ 50 mg/L, 8 Hours): 0.413 | OD600 ([2]; PQQ 50 mg/L, 9.5 Hours): 0.457 | OD600 ([2]; PQQ 75 mg/L, 6 Hours): 0.165 | OD600 ([2]; PQQ 75 mg/L, 8 Hours): 0.386 | OD600 ([2]; PQQ 75 mg/L, 9.5 Hours): 0.446 | OD600 ([2]; PQQ 100 mg/L, 6 Hours): 0.163 | OD600 ([2]; PQQ 100 mg/L, 8 Hours): 0.378 | OD600 ([2]; PQQ 100 mg/L, 9.5 Hours): 0.431 | solubility [3]: 1000 to 2000 µg/mL (≈ 3.03 to 6.06 mM) | number of E. coli in AmpR sample (general trend, FIG. 1 and table 1) ([4]; PQQ 0 to 100 mg/Liter of LB media, 6, 8, 9.5 hours): decreases as the concentration of purified PQQ increases | OD600 ([4]; PQQ 0.1 mg/L, 6 Hours): 0.143 | OD600 ([4]; PQQ 0.1 mg/L, 8 Hours): 0.331 | OD600 ([4]; PQQ 0.1 mg/L, 9.5 Hours): 0.401 | OD600 ([4]; PQQ 1 mg/L, 6 Hours): 0.145 | OD600 ([4]; PQQ 1 mg/L, 8 Hours): 0.335 | OD600 ([4]; PQQ 1 mg/L, 9.5 Hours): 0.408 | OD600 ([4]; PQQ 25 mg/L, 6 Hours): 0.087 | OD600 ([4]; PQQ 25 mg/L, 8 Hours): 0.268 | OD600 ([4]; PQQ 25 mg/L, 9.5 Hours): 0.356 | OD600 ([4]; PQQ 50 mg/L, 6 Hours): 0.052 | OD600 ([4]; PQQ 50 mg/L, 8 Hours): 0.169 | OD600 ([4]; PQQ 50 mg/L, 9.5 Hours): 0.298 | OD600 ([4]; PQQ 75 mg/L, 6 Hours): 0.04 | OD600 ([4]; PQQ 75 mg/L, 8 Hours): 0.122 | OD600 ([4]; PQQ 75 mg/L, 9.5 Hours): 0.239 | OD600 ([4]; PQQ 100 mg/L, 6 Hours): 0.03 | OD600 ([4]; PQQ 100 mg/L, 8 Hours): 0.088 | OD600 ([4]; PQQ 100 mg/L, 9.5 Hours): 0.192 | isoelectric point [5]: 2.75 pH | amount of bacteria (OD600, FIG. 2) [6]: the amount of bacteria decreases as the purified PQQ concentration increases
